Reference: patent publication US7119094B1, “Substituted polycyclic aryl and heteroarpyl pyrazinones useful for selective inhibition of the coagulation cascade” (Warner-Lambert Company, priority 2000, dated 2006)
Read-outs that look alike come from different tables or passages of the source.

What was measured:
[1] = biological target: T1, Trypsin (type 1× from porcine pancreas) (Sus scrofa, UniProt P00761); experiment: Trypsin Assay; format: biochemical
T1 construct: Trypsin (5 ug/ml; type 1× from porcine pancreas); purchased Sigma, St. Louis Mo; host or cells: porcine pancreas

[2] = biological target: T2, recombinant soluble tissue factor and recombinant human factor VIIa (TF-VIIa) (Homo sapiens, UniProt P08709); experiment: TF-VIIa Assay; format: biochemical
T2 construct: conversion of coagulation factor VII to VIIa by Xa; purchased American Diagnostica, Greenwich Conn; host or cells: factor VIIa purchased; soluble TF made in house in E. coli
T2 sequence (P08709 213-466 limits assumed): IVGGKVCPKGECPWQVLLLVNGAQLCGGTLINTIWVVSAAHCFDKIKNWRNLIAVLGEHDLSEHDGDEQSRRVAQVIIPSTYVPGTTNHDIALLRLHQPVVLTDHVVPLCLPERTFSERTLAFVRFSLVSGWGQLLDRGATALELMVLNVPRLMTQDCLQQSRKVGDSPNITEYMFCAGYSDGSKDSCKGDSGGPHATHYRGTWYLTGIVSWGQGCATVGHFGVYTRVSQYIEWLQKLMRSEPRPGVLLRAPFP
T2 sequence (P08709 61-212 limits assumed): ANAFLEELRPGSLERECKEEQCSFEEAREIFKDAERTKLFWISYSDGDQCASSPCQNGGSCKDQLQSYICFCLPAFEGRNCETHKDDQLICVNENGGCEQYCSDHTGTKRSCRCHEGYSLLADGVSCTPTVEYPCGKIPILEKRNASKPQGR
T2 sequence (P13726 33-251 partner limits assumed): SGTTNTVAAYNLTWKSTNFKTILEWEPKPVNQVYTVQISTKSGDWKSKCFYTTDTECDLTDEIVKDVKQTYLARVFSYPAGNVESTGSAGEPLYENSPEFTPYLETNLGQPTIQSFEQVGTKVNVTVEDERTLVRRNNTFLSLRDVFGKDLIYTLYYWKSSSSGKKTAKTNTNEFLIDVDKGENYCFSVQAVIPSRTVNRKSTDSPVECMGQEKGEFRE

T1 sequence (P00761 9-231): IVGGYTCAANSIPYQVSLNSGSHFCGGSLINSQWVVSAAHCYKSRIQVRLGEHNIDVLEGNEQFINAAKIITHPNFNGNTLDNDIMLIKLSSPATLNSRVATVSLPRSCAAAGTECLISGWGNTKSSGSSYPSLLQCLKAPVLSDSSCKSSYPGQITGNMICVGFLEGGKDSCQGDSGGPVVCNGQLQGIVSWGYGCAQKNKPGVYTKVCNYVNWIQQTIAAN

| Compound | % Inhibition Trpysin II (100 νM) [1] | % Inhibition TF-VIIa (100 νM) [2] | % Inhibition Trpysin II (100 νM) ([1]; inhibitor at 100 νM) | % Inhibition TF-VIIa (100 νM) ([2]; inhibitor at 100 νM) |
| --- | --- | --- | --- | --- |
| O=C(Cn1c(-c2ccc(-c3ccccc3)cc2)c(Cl)nc(NCc2ccccc2)c1=O)NCCc1ccncc1 [Example E-0049] | 0% | 2% |  |  |
| O=C(Cn1c(CCc2ccccc2)c(Cl)nc(NCc2ccccc2)c1=O)NCCc1ccncc1 [Example E-0065] |  |  | 0% | 0% |
| O=C(Cn1c(Cc2ccccc2)c(Cl)nc(NCCc2cccc(Cl)c2)c1=O)NCCc1ccncc1 [Example E-0059] |  |  | 0% | 0% |
| Cc1c(Cl)nc(NCCN2CCOCC2)c(=O)n1CC(=O)NCCc1ccncc1 [Example E-0007] |  |  | 0% | 0% |
| O=C(Cn1c(-c2ccc(-c3ccccc3)cc2)c(Cl)nc(NCCc2ccc(Cl)cc2)c1=O)NCCc1ccncc1 [Example E-0052] | 0% | 0% |  |  |
| Cc1c(Cl)nc(NCc2ccccc2)c(=O)n1CC(=O)NCCc1ccncc1 [Example E-0001] |  |  | 0% | 0% |
| COc1ccc(-c2c(Cl)nc(NCCc3cccc(Cl)c3)c(=O)n2CC(=O)NCCc2ccncc2)cc1 [Example E-0103] |  |  | 11% | 2% |
| COc1ccc(-c2c(Cl)nc(NCc3ccccc3)c(=O)n2CC(=O)NCCc2cccnc2)cc1 [Example E-0098] |  |  | 8% | 0% |
| O=C(Cn1c(-c2ccc(Cl)cc2)c(Cl)nc(NCCc2cccnc2)c1=O)NCCc1ccncc1 [Example E-0021] |  |  | 5% | 0% |
| O=C(Cn1c(CCc2ccccc2)c(Cl)nc(NCCc2ccncc2)c1=O)NCCc1ccncc1 [Example E-0070] |  |  | 0% | 0% |
| O=C(Cn1c(CCc2ccccc2)c(Cl)nc(NCCN2CCOCC2)c1=O)NCCc1ccncc1 [Example E-0071] |  |  | 0% | 0% |
| O=C(Cn1c(-c2cccc(Cl)c2)c(Cl)nc(NCCc2ccc(Cl)cc2)c1=O)NCCc1cccnc1 [Example E-0095] |  |  | 9% | 2% |
| O=C(Cn1c(-c2ccc3c(c2)OCO3)c(Cl)nc(NCCc2cccnc2)c1=O)NCCc1ccncc1 [Example E-0045] |  |  | 4% | 0% |
| O=C(Cn1c(-c2ccccc2)c(Cl)nc(NCCc2ccncc2)c1=O)NCCc1ccncc1 [Example E-0014] |  |  | 0% | 0% |
| COc1ccc(-c2c(Cl)nc(NCCc3cccc(Cl)c3)c(=O)n2CC(=O)NCCc2ccncc2)cc1 [Example E-0035] |  |  | 2% | 4% |
| O=C(Cn1c(-c2ccc3c(c2)OCO3)c(Cl)nc(NCc2ccccc2)c1=O)NCCc1ccncc1 [Example E-0041] |  |  | 2% | 0% |
| COc1ccc(-c2c(Cl)nc(NCc3ccccc3)c(=O)n2CC(=O)NCCc2ccncc2)cc1 [Example E-0097] |  |  | 11% | 0% |

| Compound | % Inhibition Trpysin II (100 νM) [1] | % Inhibition TF-VIIa (100 νM) [2] | % Inhibition Trpysin II (100 νM) ([1]; inhibitor at 100 νM) | % Inhibition TF-VIIa (100 νM) ([2]; inhibitor at 100 νM) |
| --- | --- | --- | --- | --- |
| Cc1c(Cl)nc(NCCc2cccc(Cl)c2)c(=O)n1CC(=O)NCCc1ccncc1 [Example E-0003] |  |  | 0% | 0% |
| COc1ccc(-c2c(Cl)nc(NCCN3CCOCC3)c(=O)n2CC(=O)NCCc2ccncc2)cc1 [Example E-0039] |  |  | 2% | 0% |
| COc1ccc(-c2c(Cl)nc(NCCc3ccc(Cl)cc3)c(=O)n2CC(=O)NCCc2cccnc2)cc1 [Example E-0107] |  |  | 12% | 4% |
| O=C(Cn1c(Cc2ccccc2)c(Cl)nc(NCCc2ccncc2)c1=O)NCCc1ccncc1 [Example E-0062] |  |  | 0% | 0% |
| O=C(Cn1c(-c2ccc3c(c2)OCO3)c(Cl)nc(NCc2ccncc2)c1=O)NCCc1ccncc1 [Example E-0048] |  |  | 0% | 0% |
| O=C(Cn1c(-c2ccc3c(c2)OCO3)c(Cl)nc(NCCN2CCOCC2)c1=O)NCCc1ccncc1 [Example E-0047] |  |  | 2% | 0% |
| O=C(Cn1c(-c2ccccc2)c(Cl)nc(NCc2ccccc2)c1=O)NCCc1ccncc1 [Example E-0009] |  |  | 1% | 0% |
| COc1ccc(-c2c(Cl)nc(NCCc3ccc(Cl)cc3)c(=O)n2CC(=O)NCCc2ccncc2)cc1 [Example E-0036] |  |  | 0% | 0% |
| O=C(Cn1c(-c2ccc(Cl)cc2)c(Cl)nc(NCCc2cccc(Cl)c2)c1=O)NCCc1ccncc1 [Example E-0019] |  |  | 2% | 0% |
| O=C(Cn1c(-c2cccc(Cl)c2)c(Cl)nc(NCCc2cccc(Cl)c2)c1=O)NCCc1cccnc1 [Example E-0080] |  |  | 5% | 1% |
| O=C(Cn1c(-c2ccc(-c3ccccc3)cc2)c(Cl)nc(NCCc2ccc(Cl)cc2)c1=O)NCCc1ccncc1 [Example E-0118] | 9% | 12% |  |  |
| O=C(Cn1c(-c2cccc(Cl)c2)c(Cl)nc(NCCc2ccc(Cl)cc2)c1=O)NCCc1cccnc1 [Example E-0083] |  |  | 6% | 2% |
| O=C(Cn1c(-c2cccc(Cl)c2)c(Cl)nc(NCc2ccccc2)c1=O)NCCc1cccnc1 [Example E-0086] |  |  | 11% | 0% |
| O=C(Cn1c(Cc2ccccc2)c(Cl)nc(NCCc2ccc(Cl)cc2)c1=O)NCCc1ccncc1 [Example E-0060] |  |  | 0% | 0% |
| O=C(Cn1c(-c2ccc(-c3ccccc3)cc2)c(Cl)nc(NCCc2ccccc2)c1=O)NCCc1ccncc1 [Example E-0112] | 13% | 11% |  |  |
| O=C(Cn1c(-c2ccc3c(c2)OCO3)c(Cl)nc(NCCc2cccc(Cl)c2)c1=O)NCCc1ccncc1 [Example E-0043] |  |  | 3% | 0% |
| O=C(Cn1c(Cc2ccccc2)c(Cl)nc(NCCN2CCOCC2)c1=O)NCCc1ccncc1 [Example E-0063] |  |  | 0% | 0% |
